Experiment [1] deals with T1, PAR2 (HT-29 cells, SLIGKV activation) (Homo sapiens, UniProt P55085).
T1 construct: host or cells: HT-29 cells
T1 sequence (P55085 26-397): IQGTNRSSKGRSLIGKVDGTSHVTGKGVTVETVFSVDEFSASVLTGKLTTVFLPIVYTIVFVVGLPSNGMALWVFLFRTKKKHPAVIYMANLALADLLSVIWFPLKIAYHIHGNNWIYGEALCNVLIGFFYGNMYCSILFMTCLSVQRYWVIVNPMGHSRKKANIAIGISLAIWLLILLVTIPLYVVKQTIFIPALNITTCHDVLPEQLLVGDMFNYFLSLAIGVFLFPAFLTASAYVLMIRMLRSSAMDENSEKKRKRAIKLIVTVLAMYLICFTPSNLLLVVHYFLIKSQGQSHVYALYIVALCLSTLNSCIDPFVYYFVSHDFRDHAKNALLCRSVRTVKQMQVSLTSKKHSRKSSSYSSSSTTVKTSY
The experiment is described as follows: Ca FLIPR TETRA assay, ANTAGONIST mode, stimulation with 8 μM SLIGKV. The format is cell-based. Particulars: HT-29 cells, antagonist mode. An outline of the steps: (§1)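 Intracellular calcium is measured by fluorescence in HT-29 cells loaded with calcium 5 reagent. Compounds sit on the cells 30 min at room temperature before challenge with trypsin (3.1 U/mL) or SLIGKV (8 μM) for PAR2, or with thrombin (1 U/mL) or UTP (0.6 μM) as counter-stimuli.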

Experiment [2] addresses T2, PAR2 (HT-29 cells, trypsin activation) (Homo sapiens, UniProt P55085).
T2 construct: host or cells: HT-29 cells
T2 sequence (P55085 26-397): T1 sequence (P55085 26-397)
The experiment is described as follows: Ca FLIPR TETRA assay, ANTAGONIST mode, stimulation with 3.1 U/mL trypsin. The format is cell-based. Particulars: HT-29 cells, antagonist mode. Put shortly: as §1

The subject of experiment [3] is Thrombin-stimulated Ca2+ response in HT-29 cells. The experiment is described as follows: Ca FLIPR TETRA assay, ANTAGONIST mode, stimulation with 1 U/mL Thrombin. In kind it is cell-based, human. As to conditions: Homo sapiens, HT-29 cells, antagonist mode. Put shortly: as §1
Experiment [4] concerns UTP-stimulated Ca2+ response in HT-29 cells. The experiment is described as follows: Ca FLIPR TETRA assay, ANTAGONIST mode, stimulation with 0.6 μM UTP. The format is cell-based, human. As to conditions: Homo sapiens, HT-29 cells, antagonist mode. An outline of the steps:
as §1

[5] abbreviates: stimulation with 3.1 U/mL trypsin.
Setting [6] is: stimulation with 1 U/mL Thrombin.

A word on the IC50: it is the concentration that inhibits the measured activity by half.

`CC(C)c1cc(-c2ccc(Cl)cc2)nn2cc(C(=O)N3CCN(C(=O)[C@H]4CC[C@H](C(=O)O)CC4)CC3(C)C)nc12` [Compound I-549]: the concentration for half-maximal inhibition (IC50) in experiment [1] (stimulation with 8 μM SLIGKV) is 0.0275 µM; in experiment [2] (setting [5]), 0.0575 µM; in experiment [3] (setting [6]) it was greater than 1 µM; in experiment [4] (stimulation with 0.6 μM UTP), greater than 1 µM.
Consider `COC(=O)[C@H]1CC[C@@H](C(=O)N2CCN(C(=O)c3cn4nc(C(C)C)cc(C(C)C)c4n3)C(C)(C)C2)CC1` [Compound I-550], for which the IC50 in experiment [1] (stimulation with 8 μM SLIGKV) is 0.773 µM; in experiment [2] (setting [5]), 1.05 µM; in experiment [3] (setting [6]) it was greater than 30 µM; in experiment [4] (stimulation with 0.6 μM UTP) it was greater than 30 µM.
Take `CC(C)c1cc(C(C)C)c2nc(C(=O)N3CCN(C(=O)C4CCC(C(=O)O)CC4)CC3(C)C)cn2n1` (stereo not drawn) [Compound I-551, 4-[4-(6,8-diisopropylimidazo[1,2-b]pyridazine-2-carbonyl)-3,3-dimethyl-piperazine-1-carbonyl]cyclohexanecarboxylic acid]: the concentration for half-maximal inhibition (IC50) is 0.97 µM in experiment [1] (stimulation with 8 μM SLIGKV), 1.5 µM in experiment [2] (setting [5]), greater than 30 µM in experiment [3] (setting [6]) and greater than 30 µM in experiment [4] (stimulation with 0.6 μM UTP).
As for `Cc1n[nH]c(C(=O)N2CCN(C(=O)c3cn4nc(-c5ccc(F)cc5)cc(C(C)C)c4n3)CC2)n1` [Compound I-552], the half-maximal inhibitory concentration (IC50) in experiment [1] (stimulation with 8 μM SLIGKV) is 0.72 µM; in experiment [2] (setting [5]), 0.72 µM; in experiment [3] (setting [6]), greater than 1 µM; in experiment [4] (stimulation with 0.6 μM UTP), greater than 1 µM.
As for `CC(C)c1cc(-c2ccc(Cl)cc2)nn2cc(C(=O)N3CCN(C(=O)[C@H]4C[C@@H](C(=O)O)C4)CC3(C)C)nc12` [Compound I-553], the half-inhibitory concentration (IC50) in experiment [1] (stimulation with 8 μM SLIGKV) is 0.024 µM; in experiment [2] (setting [5]) it was 0.0495 µM; in experiment [3] (setting [6]), greater than 1 µM; in experiment [4] (stimulation with 0.6 μM UTP) it was greater than 1 µM.
As to `CC(C)c1cc(-c2ccc(Cl)cc2)nn2cc(C(=O)N3CCN(C(=O)[C@H]4C[C@H](C(=O)O)C4)CC3(C)C)nc12` [Compound I-554], the IC50 in experiment [1] (8 μM SLIGKV) is 0.0093 µM; in experiment [2] (3.1 U/mL trypsin) it was 0.0112 µM; in experiment [3] (1 U/mL Thrombin), greater than 1 µM; in experiment [4] (0.6 μM UTP), greater than 1 µM.
As to `CC(C)(C)c1cc(-c2ccc(F)cc2)nn2cc(C(=O)N3CCN(C(=O)[C@H]4C[C@@H](C(=O)O)C4)CC3(C)C)nc12` [Compound I-555, (1S,3S)-3-(4-(8-(tert-butyl)-6-(4-fluorophenyl)imidazo[1,2-b]pyridazine-2-carbonyl)-3,3-dimethylpiperazine-1-carbonyl)cyclobutane-1-carboxylic acid], the IC50 was 0.0042 µM in experiment [1] (8 μM SLIGKV), 0.0078 µM in experiment [2] (3.1 U/mL trypsin), greater than 1 µM in experiment [3] (1 U/mL Thrombin) and greater than 1 µM in experiment [4] (0.6 μM UTP).
In the case of `CC(C)(C)c1cc(-c2ccc(F)cc2)nn2cc(C(=O)N3CCN(C(=O)[C@H]4C[C@H](C(=O)O)C4)CC3(C)C)nc12` [Compound I-556, (1R,3R)-3-(4-(8-(tert-butyl)-6-(4-fluorophenyl)imidazo[1,2-b]pyridazine-2-carbonyl)-3,3-dimethylpiperazine-1-carbonyl)cyclobutane-1-carboxylic acid], the IC50 in experiment [1] (8 μM SLIGKV) is 0.009 µM; in experiment [2] (3.1 U/mL trypsin), 0.021 µM; in experiment [3] (1 U/mL Thrombin) it was greater than 1 µM; in experiment [4] (0.6 μM UTP), greater than 1 µM.
In the case of `CC(C)(C)c1cc(-c2ccc(F)cc2)nn2cc(C(=O)N3CCN(C(=O)/C=C/C(=O)O)CC3(C)C)nc12` [Compound I-558], the half-maximal inhibitory concentration (IC50) in experiment [1] (8 μM SLIGKV) is 0.0185 µM; in experiment [2] (3.1 U/mL trypsin), 0.0435 µM; in experiment [3] (1 U/mL Thrombin), greater than 1 µM; in experiment [4] (0.6 μM UTP) it was greater than 1 µM.
For the molecule `CC(C)(C)c1cc(-c2ccc(F)cc2)nn2cc(C(=O)N3CCN(C(=O)C45CC(C(=O)O)(C4)C5)CC3(C)C)nc12` [Compound I-559], the IC50 in experiment [1] (8 μM SLIGKV) is 0.02 µM; in experiment [2] (3.1 U/mL trypsin) it was 0.0515 µM; in experiment [3] (1 U/mL Thrombin), greater than 1 µM; in experiment [4] (0.6 μM UTP), greater than 1 µM.
As for `CC(C)(C)c1cc(-c2ccc(F)cc2)nn2cc(C(=O)N3CCN(C(=O)CCC(=O)O)CC3(C)C)nc12` [Compound I-560, 4-(4-(8-(tert-butyl)-6-(4-fluorophenyl)imidazo[1,2-b]pyridazine-2-carbonyl)-3,3-dimethylpiperazin-1-yl)-4-oxobutanoic acid], the 50% inhibitory concentration (IC50) was 0.0049 µM in experiment [1] (8 μM SLIGKV), 0.0093 µM in experiment [2] (3.1 U/mL trypsin), greater than 1 µM in experiment [3] (1 U/mL Thrombin) and greater than 1 µM in experiment [4] (0.6 μM UTP).
`CC(C)(CC(=O)N1CCN(C(=O)c2cn3nc(-c4ccc(F)cc4)cc(C(C)(C)C)c3n2)C(C)(C)C1)C(=O)O` [Compound I-561, 4-(4-(8-(tert-butyl)-6-(4-fluorophenyl)imidazo[1,2-b]pyridazine-2-carbonyl)-3,3-dimethylpiperazin-1-yl)-2,2-dimethyl-4-oxobutanoic acid]: the IC50 in experiment [1] (8 μM SLIGKV) was 0.0005 µM; in experiment [2] (3.1 U/mL trypsin), 0.0007 µM; in experiment [3] (1 U/mL Thrombin), greater than 1 µM; in experiment [4] (0.6 μM UTP), greater than 1 µM.
On to `CC(C)(C)c1cc(-c2ccc(F)cc2)nn2cc(C(=O)N3CCN(C(=O)C4(C(=O)O)CC4)CC3(C)C)nc12` [Compound I-562], for which the IC50 in experiment [1] (8 μM SLIGKV) was 0.028 µM; in experiment [2] (3.1 U/mL trypsin), 0.129 µM; in experiment [3] (1 U/mL Thrombin), greater than 1 µM; in experiment [4] (0.6 μM UTP) it was greater than 1 µM.
As for `CC(C)(C)c1cc(-c2ccc(F)cc2)nn2cc(C(=O)N3CN(C(C)(C)C)C(=O)C3(C)C)nc12` [Compound I-564], the IC50 in experiment [1] (8 μM SLIGKV) is 0.125 µM; in experiment [2] (3.1 U/mL trypsin), 0.193 µM; in experiment [3] (1 U/mL Thrombin) it was greater than 1 µM; in experiment [4] (0.6 μM UTP), greater than 1 µM.
Turning to `CC(C)(C)c1cc(-c2ccc(F)cc2)nn2cc(C(=O)N3CN(Cc4ccccc4)C(=O)C3(C)C)nc12` [Compound I-565], the half-maximal inhibitory concentration (IC50) in experiment [1] (8 μM SLIGKV) is 0.043 µM; in experiment [2] (3.1 U/mL trypsin), 0.042 µM; in experiment [3] (1 U/mL Thrombin), greater than 1 µM; in experiment [4] (0.6 μM UTP) it was greater than 1 µM.
With `CC(C)(C)c1cc(-c2ccc(F)cc2)nn2cc(C(=O)N3CCN(C(=O)CCC#N)CC3(C)C)nc12` [Compound I-566], the 50% inhibitory concentration (IC50) was 0.003 µM in experiment [1] (8 μM SLIGKV), 0.0051 µM in experiment [2] (3.1 U/mL trypsin), greater than 1 µM in experiment [3] (1 U/mL Thrombin) and greater than 1 µM in experiment [4] (0.6 μM UTP).
Regarding `CC1(C)C(=O)NCCN1C(=O)c1cn2nc(-c3ccc(F)cc3)cc(-c3ccsc3)c2n1` [Compound I-567, 4-(6-(4-fluorophenyl)-8-(thiophen-3-yl)imidazo[1,2-b]pyridazine-2-carbonyl)-3,3-dimethylpiperazin-2-one], the IC50 in experiment [1] (8 μM SLIGKV) is 0.023 µM; in experiment [2] (3.1 U/mL trypsin), 0.0498 µM; in experiment [3] (1 U/mL Thrombin) it was greater than 1 µM; in experiment [4] (0.6 μM UTP), greater than 1 µM.
Regarding `CC1(C)C(=O)NCCN1C(=O)c1cn2nc(-c3ccc(F)cc3)cc(-c3cccnc3)c2n1` [Compound I-568], the IC50 was 0.52 µM in experiment [1] (8 μM SLIGKV), 0.62 µM in experiment [2] (3.1 U/mL trypsin), greater than 1 µM in experiment [3] (1 U/mL Thrombin) and greater than 1 µM in experiment [4] (0.6 μM UTP).
Consider `CC1(C)C(=O)NCCN1C(=O)c1cn2nc(-c3ccc(F)cc3)cc(-c3ccncc3)c2n1` [Compound I-569], for which the concentration for half-maximal inhibition (IC50) in experiment [1] (8 μM SLIGKV) was 0.395 µM; in experiment [2] (3.1 U/mL trypsin) it was 0.64 µM; in experiment [3] (1 U/mL Thrombin) it was greater than 1 µM; in experiment [4] (0.6 μM UTP), greater than 1 µM.
On to `CC(C)(C)c1cc(-c2ccc(Cl)cc2)nn2cc(C(=O)N3CCN(C(=O)[C@H]4C[C@H](C(=O)O)C4)CC3(C)C)nc12` [Compound I-570], for which the IC50 was 0.0016 µM in experiment [1] (8 μM SLIGKV), 0.0022 µM in experiment [2] (3.1 U/mL trypsin), greater than 1 µM in experiment [3] (1 U/mL Thrombin) and greater than 1 µM in experiment [4] (0.6 μM UTP).
Take `CC(C)(CC(=O)O)C(=O)N1CCN(C(=O)c2cn3nc(-c4ccc(F)cc4)cc(C(C)(C)C)c3n2)C(C)(C)C1` [Compound I-571]: the 50% inhibitory concentration (IC50) in experiment [1] (8 μM SLIGKV) was 0.0011 µM; in experiment [2] (3.1 U/mL trypsin) it was 0.0033 µM; in experiment [3] (1 U/mL Thrombin), 0.98 µM; in experiment [4] (0.6 μM UTP), greater than 1 µM.

The values are drawn from US20190119282A1, “IMIDAZOPYRIDAZINES USEFUL AS INHIBITORS OF THE PAR-2 SIGNALING PATHWAY” (Vertex Pharmaceuticals Incorporated, priority 2013, published 2019).
